# Assay results taken from patent US20080050319A1, “Benzylidene-Alpha-Dicarbonyl Compounds as Novel Uv Absorbers” (SYMRISE GMBH & CO. KG, priority 2004, published 2008).
# Assays:
# Type in all cases: physicochemical
# [1] = UV absorption properties (extinction); set-up: unit not given here
# Excerpt: EXAMPLES FOR THE PREPARATION AND THE ABSORPTION PROPERTIES
# [2] = Solubility in cosmetic oils; conditions: per cent by weight
# Excerpt: Examples of Solubility (In Per Cent By Weight)
# (data in per cent by weight)
# [3] = Photostability test with Suntester, HPLC analysis of UV filter mixtures
# Description: Photostability tests were carried out with a Suntester from Heräus. The irradiation intensity in these was 80 W/m^2, based on the UV range of 290-400 nm. The irradiation time was 4 h in total, the photodegradation of the UV filters being measured by HPLC analyses after an irradiation time of 2 and 4 h. The irradiations of the UV filter mixtures were carried out in an isopropyl myristate solution. The percentage values relate to the value measured without irradiation (decrease in the concentration).
# [4] = 2 h, Experiment 1: 3% OMC + 1% DMDBM + 2% A1 in isopropyl myristate
# [5] = 2 h, Experiment 2: 3% OMC + 1% DMDBM + 2% A2 in isopropyl myristate
# [6] = 2 h, Experiment 3: 3% OMC + 1% DMDBM + 2% A3 in isopropyl myristate
# [7] = 2 h, Experiment 4: 3% OMC + 1% DMDBM + 2% B1 in isopropyl myristate
# [8] = 2 h, Experiment 5: 3% OMC + 1% DMDBM + 2% B2 in isopropyl myristate
# [9] = 2 h, Experiment 6: 3% OMC + 1% DMDBM + 2% B3 in isopropyl myristate
# [10] = 2 h irradiation, 80 W/m2, reference mixture 3% OMC + 1% DMDBM in isopropyl myristate
# [11] = 4 h, Experiment 1: 3% OMC + 1% DMDBM + 2% A1 in isopropyl myristate
# [12] = 4 h, Experiment 2: 3% OMC + 1% DMDBM + 2% A2 in isopropyl myristate
# [13] = 4 h, Experiment 3: 3% OMC + 1% DMDBM + 2% A3 in isopropyl myristate
# [14] = 4 h, Experiment 4: 3% OMC + 1% DMDBM + 2% B1 in isopropyl myristate
# [15] = 4 h, Experiment 5: 3% OMC + 1% DMDBM + 2% B2 in isopropyl myristate
# [16] = 4 h, Experiment 6: 3% OMC + 1% DMDBM + 2% B3 in isopropyl myristate
# [17] = 4 h irradiation, 80 W/m2, reference mixture 3% OMC + 1% DMDBM in isopropyl myristate
compound,measurement,setting,value
COc1ccc(/C=C(/C(=O)OCCC(C)C)C(=O)c2ccccc2)cc1 [Example 5],Extinction,[1]; at 316 nm,630
same,Solubility in Isopropyl myristate,[2],>20%
same,Solubility in Miglyol -812,[2],>20%
same,Solubility in Witconol-TN,[2],>20%
COc1ccc(/C=C(/C(C)=O)C(=O)c2ccccc2)cc1 [Example 8],Extinction,"[1]; at 323 nm, pure Z isomer",816
"COc1ccc(C(=O)CC(=O)c2ccc(C(C)(C)C)cc2)cc1 [DMDBM, 4-dimethylethyl-4′-methoxydibenzoylmethane]",photodegradation (decrease in the concentration),[3]; [4],24%
same,photodegradation (decrease in the concentration),[3]; [5],20%
same,photodegradation (decrease in the concentration),[3]; [6],20%
same,photodegradation (decrease in the concentration),[3]; [7],27%
same,photodegradation (decrease in the concentration),[3]; [8],27%
same,photodegradation (decrease in the concentration),[3]; [9],27%
same,photodegradation (decrease in the concentration),[3]; [10],67%
same,photodegradation (decrease in the concentration),[3]; [11],38%
same,photodegradation (decrease in the concentration),[3]; [12],28%
same,photodegradation (decrease in the concentration),[3]; [13],28%
same,photodegradation (decrease in the concentration),[3]; [14],48%
same,photodegradation (decrease in the concentration),[3]; [15],60%
same,photodegradation (decrease in the concentration),[3]; [16],52%
same,photodegradation (decrease in the concentration),[3]; [17],87%
"CCCCC(CC)COC(=O)C=Cc1ccc(OC)cc1 (stereo not drawn) [OMC, octyl methoxycinnamate]",photodegradation (decrease in the concentration),[3]; [4],12%
same,photodegradation (decrease in the concentration),[3]; [5],12%
same,photodegradation (decrease in the concentration),[3]; [6],11%
same,photodegradation (decrease in the concentration),[3]; [7],11%
same,photodegradation (decrease in the concentration),[3]; [8],15%
same,photodegradation (decrease in the concentration),[3]; [9],13%
same,photodegradation (decrease in the concentration),[3]; [10],58%
same,photodegradation (decrease in the concentration),[3]; [11],17%
same,photodegradation (decrease in the concentration),[3]; [12],17%
same,photodegradation (decrease in the concentration),[3]; [13],17%
same,photodegradation (decrease in the concentration),[3]; [14],18%
same,photodegradation (decrease in the concentration),[3]; [15],30%
same,photodegradation (decrease in the concentration),[3]; [16],25%
same,photodegradation (decrease in the concentration),[3]; [17],76%
COc1ccc(C=C(C(C)=O)C(C)=O)cc1 [Example B3],photodegradation (decrease in the concentration),[3]; [9],0%
same,photodegradation (decrease in the concentration),[3]; [16],8%
CCCCOC(=O)/C(=C/c1ccc(OC)cc1)C(=O)c1ccccc1 [Example 4],Extinction,[1]; at 316 nm,660
same,photodegradation (decrease in the concentration),[3]; [4],0%
same,photodegradation (decrease in the concentration),[3]; [11],0%
same,photostability (in words),"[3]; in mixture with OMC and DMDBM, compared with the comparison measurement",outstanding photostability
same,Solubility in Isopropyl myristate,[2],>20%
same,Solubility in Miglyol -812,[2],>20%
same,Solubility in Witconol-TN,[2],>20%
CCOC(=O)C(=Cc1ccc(OC)cc1)C(=O)OCC [Example B2],photodegradation (decrease in the concentration),[3]; [8],2%
same,photodegradation (decrease in the concentration),[3]; [15],7%
CCOC(=O)/C(=C/c1ccc(OC)cc1)C(=O)c1ccccc1 [Example A3],Solubility in Isopropyl myristate,[2],>20%
same,Solubility in Miglyol -812,[2],>20%
same,Solubility in Witconol-TN,[2],>20%
CCOC(=O)/C(=C/c1ccc(C)cc1)C(=O)c1ccccc1 [Example 7],Extinction,[1]; at 292 nm,690
COc1ccc(/C=C(/C(=O)OCC(C)C)C(=O)c2ccccc2)cc1 [Example 3],Extinction,[1]; at 316 nm,640
same,Solubility in Isopropyl myristate,[2],>20%
same,Solubility in Miglyol -812,[2],>20%
same,Solubility in Witconol-TN,[2],>20%
COc1ccc(/C=C(/C(C)=O)C(=O)c2ccccc2)cc1 [Example A2],photodegradation (decrease in the concentration),[3]; [5],3%
same,photodegradation (decrease in the concentration),[3]; [12],3%
same,Solubility in Isopropyl myristate,[2],<10%
same,Solubility in Miglyol -812,[2],<10%
same,Solubility in Witconol-TN,[2],<10%
CCCOC(=O)/C(=C/c1ccc(OC)cc1)C(=O)c1ccccc1 [Example 2],Extinction,[1]; at 316 nm,660
same,Solubility in Isopropyl myristate,[2],>10%
same,Solubility in Miglyol -812,[2],>10%
same,Solubility in Witconol-TN,[2],>10%
CCOC(=O)/C(=C/c1ccc(OC)cc1)C(=O)C1CCCCC1 [Example 6],Extinction,[1]; at 316 nm,700
CCOC(=O)/C(=C/c1ccc(OC)cc1)C(=O)c1ccc(C)cc1 [Example 9],Extinction,[1]; at 316 nm,660
CCOC(=O)/C(=C/c1ccc(OC)cc1)C(=O)c1ccccc1 [Example A2],photodegradation (decrease in the concentration),[3]; [6],0%
same,photodegradation (decrease in the concentration),[3]; [13],0%
COc1ccc(/C=C(/C(=O)OC(C)C)C(=O)c2ccccc2)cc1 [Example 1],Extinction,[1]; at 316 nm,640
same,Solubility in Isopropyl myristate,[2],>10%
same,Solubility in Miglyol -812,[2],>10%
same,Solubility in Witconol-TN,[2],>10%
